Measurements from patent US9623062B2, “Anti-ageing activity of camphor in fibroblast cell line” (Jeju National University Industryacademic Cooperation …, priority 2014, dated 2017).

Key:
[1] = tested on: fibroblasts; assay: ROS production by DCFH-DA flow cytometry in fibroblasts; format: cell-based, human; settings: for increase of ROS production compared to non-treated cells: fibroblasts, 24 hours after treatment, FIG. 4A
Protocol: To analyze the reactive oxygen species (ROS), the cells were seeded in 60 mm culture dishes at a density of 2×10^4 cells/mL, and then treated with 10% chamomile hydrosol for 0, 6, 12, and 24 hours. The cells were stained with 2′-7′-dichlorodihydrofluorescein diacetate (DCFH-DA) for 15 minutes, collected in a 15 mL tube, and then washed with PBS. The cells were re-suspended in 500 μl of PBS, and measured for a level of ROS. For the cell cycle analysis, the treated cells were harvested and fixed overnight in 70% ethanol at 4° C. After 24 hours, the cells were rehydrated in 2 mM EDTA-BPS with RNase A (25 ng/ml), and stained with PI (40 μg/ml). All the analyses were performed using a FACS Caliber flow cytometer (BD Biosciences), and each sample were analyzed by counting 10,000 cells.

[2] = tested on: fibroblast cells (SA-β-gal); assay: Senescence-associated β-galactosidase activity in fibroblasts; format: cell-based, human
Protocol: Fibroblast cells were incubated in 6-well plate at a density of 1×10^4 cells/well. Then the culture supernatants were removed and the cells were treated 72 h with only camphor (260 μM) or H2O2 600 μM and 800 μM or co-treated camphor and H2O2 in fresh media; ethanol containing media and media only were used as negative controls. In some experiments, H2O2 was pretreated on fibroblast cells 72 h and replaced with or without camphor treatment (260 μM) 48 h. After treatment, cells were washed twice with PBS and fixed 10 minutes in 4% formaldehyde. Then, this was followed by washing 3 times with wash solution (100 mM Na2HPO4 set to pH 6 with 100 mM Citric Acid). Cells was incubated overnight at 37° C. in freshly made staining solution (5 mM K3Fe(CN)6, 5 mM K4Fe(CN)6, 2 mM MgCl2, 150 mM NaCl, 40 mM Na2HPO4, 1 mg/mL bromo-chloro-indolyl-galactopyranoside (X-Gal), set to pH 6 with 100 mM citric acid). Next day, cells was washed the staining solution with PBS and taken picture by microscope and β-galactosidase-positive cell number ratio was calculated.

[3] = tested on: Primary dermal fibroblast cells; assay: MTT cell viability of fibroblasts; format: cell-based, human
Protocol: Fresh human foreskin specimens were obtained from 8 donors aged from 6 to 12 years, who received a routine circumcision procedure of Jeju National University Hospital, Korea. After being digested with 0.1% […] (Worthington Biochemical Corporation, Lakewood, N.J.) at 4° C. overnight, the epidermal layers were removed, and the remaining dermal parts were further digested with 0.1% collagenase I (Worthington) at 37° C. for another 4 h. The digested cells were then passed through a […] cell strainer (BD Biosciences, Mississauga, ON, Canada), centrifuged, and resuspended in high-glucose DMEM (Gibco, Invitrogen, Carlsbad, Calif.), supplemented with 10% FBS (Gibco, Invitrogen, Carlsbad, Calif.), 100 U/ml penicillin, and 100 μg/ml streptomycin (all from PAA Laboratories, Linz, Austria). Cells were seeded on tissue culture plates at 1×10^3 cells/cm2, and maintained at 37° C. with 5% CO2. After 24 h, the plates were washed with PBS to remove residual non-adherent cells. The resulting adherent cells were grown to confluence within 7 days. Primary dermal fibroblast (2×10^4 cells/ml) cells were plated in 96-well plates in 200 μl of medium containing 10% FBS. After 24 h, the cells were treated with different concentrations of chamomile hydrosol or camphor. […] Cell viability was determined from the absorbance at 570 nm, measured using a Sunrise microplate reader (Tecan, Salzburg, Austria). […]

[4] = tested on: PI3K/AKT and MAPK signaling cascades; assay: Western blot of PI3K/AKT/ERK/4E-BP1 phosphorylation in fibroblasts; format: cell-based, human
Protocol: (§1) After 0, 6, 12, 24 h treatment, cells were collected and lysed in lysis buffer (100 mM Tris-Hcl [pH 8], 250 mM NaCl, 0.5% Nonidet P-40, and 1× protease inhibitor cocktail) and sonicated few times then kept on ice for 30 min. The cell lysates were centrifuged at 13,000 rpm for 30 min at 4° C. The supernatant were collected and determined the concentration by BCA™ Protein assay (Pierce, Rockford, Ill.). For detecting MMP 1 and collagen I, and collagen III, we collected the media and centrifuging 400×g for 1 h at 4° C. by using Amicon Ultra 10K and determined the concentration by Bradford assay. Aliquots of the lysated were separated by 10-15% SDS-PAGE, and transferred to PVDF membranes using a glycine transfer buffer (192 mM glycine, 25 mM Tris-HCl [pH 8.8], and 20% [v/v] methanol). After blocking with Skim milk 5% overnight at 4° C., the membrane were incubated with primary antibodies for 1 h RT or overnight at 4° C. and then for 1 h with secondary antibodies. Primary antibodies were diluted at ratio 1:1000 whereas the anti-β-actin primary and secondary antibodies (horseradish peroxidase-conjugated goat anti-mouse IgG) (Vector Laboratories, Burlingame, Calif.) were diluted at ratio 1:10,000. Protein bands were detected using the WEST-ZOL® plus Western Blot Detection System (iNtRON, Gyeonggi-do, Korea).

[5] = target: T1, porcine pancreatic elastase (PPE (Type IV)) (Sus scrofa, UniProt P00772); assay: Elastase assay; format: biochemical; settings: camphor 0-3200 μM, n-Suc-(Ala)3-nitroanilide substrate, FIG. 5B
T1 construct: purchased Sigma
T1 sequence (P00772 27-266): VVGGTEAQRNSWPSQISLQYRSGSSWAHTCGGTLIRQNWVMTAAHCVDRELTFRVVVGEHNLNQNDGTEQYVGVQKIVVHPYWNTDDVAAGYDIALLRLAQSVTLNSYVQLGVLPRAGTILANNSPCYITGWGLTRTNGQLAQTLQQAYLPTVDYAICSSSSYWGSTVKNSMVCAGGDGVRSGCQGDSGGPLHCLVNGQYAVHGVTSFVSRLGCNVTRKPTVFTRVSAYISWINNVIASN
Protocol: The inhibition of different concentrations of camphor on porcine pancreatic elastase (PPE (Type IV), Sigma) activity was examined using n-Suc-(Ala)3-nitroanilide as the substrate, and the release of nitroaniline was measured at 410 nm. The reaction was carried out in a 200 mM Tris-HCl buffer (pH 8.0) containing 0.8 mM N-Suc-(Ala)3-nitroanilide and 5 μg/mL elastase. Different concentrations of camphor (0-3200 μM) were added to the reaction mixture to reach a final volume of 320 μl, and elastase inhibition was assessed in 96 well-plate reader at 25° C. The reaction mixture was pre-incubated for 10 minutes before addition of the substrate. The change in absorbance was measured at 410 nm using a 96-well reader. The percentage of elastase activities was calculated by the following equation: Enzyme activity (%)=100−[(B−A)/A]×100]
wherein A represents an absorbance at 410 nm without camphor, and B represents an absorbance at 410 nm with camphor.

[6] = tested on: collagen types I, III and IV and collagenase MMP1; assay: Western blot of collagen types and MMP1; format: cell-based, human; settings: camphor treatment
Protocol: as §1

[7] = tested on: Fibroblast cells; assay: Total collagen assay (Sircol); format: cell-based, human; settings: cells treated with camphor vs non-treated control, FIG. 5C
Protocol: Total collagen was quantified in culture media using the Sircol Soluble Collagen Assay kit (Biocolor, Newtownabbey, Northern Ireland) by quantitative dye-binding method, according to the manufacturer's instruction. Fibroblast cells were seeded in 6-well culture plates at density 2×10^5 cells/well with 2 ml/well media with or without camphor (260 μM) and incubated for different time points (6 h, 12 h, 24 h). After treatment, 200 μl sample medium of each group was transferred to a 1.5 ml centrifuge tube and 1 ml Sircol dye reagent was added into each tube. The mixed contents were incubated at room temperature for 30 min. Then the tubes were centrifuged at 10000 g for 10 minutes. The supernatants were drained off and discarded. The remaining pellets were mixed with 1 ml Alkali reagent and gently mixed until the pellets dissolved completely. The solutions were transferred to a 96-well plate and read absorbance at 540 nm. A standard curve was made simultaneously by standard collagen stock solution (0.5 mg/m1).

Row | SMILES | increase of ROS production compared to non-treated cells [1] | SA-β-gal-positive cells ([2]; H2O2 alone vs control, FIG. 5A) | cell viabilities enhanced by camphor when ROS scavenged by NAC ([3]; NAC pre-treatment, then camphor, FIG. 4C) | phosphorylation of PI3K, AKT, 4EBP1, and ERK increased by camphor, after NAC pre-treatment ([4]; NAC pre-treatment plus camphor, FIG. 4D) | camphor-induced ROS production after NAC pre-treatment ([1]; fibroblasts pre-treated with NAC, then camphor 24 hours, FIG. 4B) | fibroblast viability ([3]; camphor from 32.25 μM to 260 μM, FIG. 3A) | phosphorylated forms of 4E-BP1 ([4]; fibroblasts treated with camphor, FIG. 3B) | phosphorylation of PI3K, AKT, and ERK ([4]; fibroblasts treated with camphor, time-dependent, FIG. 3B) | elastase activity inhibition [5] | expression of MMP1 [6] | volume of collagen types III and IV ([6]; FIG. 5D) | reversal of cellular senescence ([2]; cells pre-treated with H2O2 at 800 μM, then camphor) | SA-β-gal-positive cells ([2]; co-treatment of camphor with 600 and 800 μM H2O2, 72 h) | number of senescent cells ([2]; pre-treated with 600 μM H2O2 for 3 days, then camphor for 2 days) | total volume of collagen [7]
1 | OO [H2O2, reference compound] | 53% | dramatically induced SA-β-gal-positive cells |  |  |  |  |  |  |  |  |  |  |  |  | 
2 | CC(=O)N[C@@H](CS)C(=O)O [NAC, N-acetyl-L-cysteine, reference compound] |  |  | decreased | reduced the phosphorylation | decreased the induced ROS production |  |  |  |  |  |  |  |  |  | 
3 | CC1(C)C2CC[C@@]1(C)C(=O)C2 [camphor, (1R)-1,7,7-Trimethylbicyclo[2.2.1]heptan-2-one] | approximately 13% |  |  |  |  | increased the fibroblast viability | observed | increased the phosphorylation | inhibited the elastase activity in a concentration-dependent manner | no change | increased | did not significantly reverse the cellular senescence | reduced the SA-β-gal-positive cells | significantly decreased | increased
